Each block holds one molecule with its values, some of them ahead of it. Calls of active or inactive are those of the source. Unless noted, no cut-off for these calls is given here.
Assays:
[1] = molecular target: T1, Interleukin-8 (Homo sapiens, UniProt P10145); assay: SAR analysis of GM-Tri-DAP induced IL-8 secretion in MCF-7/NOD1 cells - Set 2. [Related pubchem assays (depositor defined):AID1575, AID1578, AID2333]; type: functional, cell-based
T1 sequence (P10145 whole entry): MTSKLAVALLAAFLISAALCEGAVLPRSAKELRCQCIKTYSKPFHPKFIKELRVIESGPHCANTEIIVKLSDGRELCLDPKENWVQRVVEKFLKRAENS

[2] = molecular target: T2, Nucleotide-binding oligomerization domain-containing protein 2 (Homo sapiens, UniProt Q9HC29); assay: NOD2 signaling inhibitors, analog potency, SAR follow-up, cell-based, set 3 (AID 2799); type: functional
T2 sequence (Q9HC29 whole entry, the tested form may be a part): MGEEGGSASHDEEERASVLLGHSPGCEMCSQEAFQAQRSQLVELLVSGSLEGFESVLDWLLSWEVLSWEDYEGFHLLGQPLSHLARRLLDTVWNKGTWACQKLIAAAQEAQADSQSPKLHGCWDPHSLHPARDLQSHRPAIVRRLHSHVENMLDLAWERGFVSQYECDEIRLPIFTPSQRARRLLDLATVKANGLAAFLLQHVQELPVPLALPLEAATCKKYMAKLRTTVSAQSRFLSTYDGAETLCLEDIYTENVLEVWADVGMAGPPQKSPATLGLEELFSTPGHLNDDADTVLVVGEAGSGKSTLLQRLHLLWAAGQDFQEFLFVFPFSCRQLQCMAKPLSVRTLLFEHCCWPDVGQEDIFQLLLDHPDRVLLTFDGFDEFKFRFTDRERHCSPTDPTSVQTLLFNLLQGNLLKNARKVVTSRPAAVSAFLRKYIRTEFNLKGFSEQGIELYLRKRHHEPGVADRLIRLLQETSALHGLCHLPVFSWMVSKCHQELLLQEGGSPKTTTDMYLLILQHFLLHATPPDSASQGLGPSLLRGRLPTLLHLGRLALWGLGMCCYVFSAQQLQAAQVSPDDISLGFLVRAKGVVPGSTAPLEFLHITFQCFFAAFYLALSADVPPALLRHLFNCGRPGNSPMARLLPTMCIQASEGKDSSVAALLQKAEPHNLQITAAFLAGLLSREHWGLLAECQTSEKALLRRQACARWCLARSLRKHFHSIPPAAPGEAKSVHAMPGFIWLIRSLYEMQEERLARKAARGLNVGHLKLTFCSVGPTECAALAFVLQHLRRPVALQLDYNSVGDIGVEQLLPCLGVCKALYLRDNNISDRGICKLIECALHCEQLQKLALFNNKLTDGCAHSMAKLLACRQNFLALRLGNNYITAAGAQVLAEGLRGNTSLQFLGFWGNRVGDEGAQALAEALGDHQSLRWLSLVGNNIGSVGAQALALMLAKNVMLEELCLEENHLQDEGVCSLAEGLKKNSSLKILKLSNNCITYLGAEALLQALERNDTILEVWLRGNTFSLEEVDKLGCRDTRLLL

[3] = tested on: HEK293; assay: SAR analysis of compounds that are cytotoxic to HEK293 - Set 2. [Related pubchem assays (depositor defined):AID1575, AID1578, AID1849, AID2001, AID2333, AID2334, AID2335, AID2337, AID2800]; type: functional, cell-based; conditions: Homo sapiens
[4] = tested on: HEK293; assay: SAR analysis of compounds that are cytotoxic to HEK293 - Set 3. [Related pubchem assays (depositor defined):AID1575, AID1578, AID1848, AID1849, AID2001, AID2333, AID2334, AID2335, AID2337, AID2469]; type: functional, cell-based; conditions: Homo sapiens
[5] = molecular target: T2, Nucleotide-binding oligomerization domain-containing protein 2; assay: NOD2 inhibitors, SAR follow-up, set 2 (AID 2475); type: functional
[6] = molecular target: Tumor necrosis factor (Homo sapiens, UniProt P01375); assay: TNFa-triggered NF-kB activation inhibitors, SAR follow-up, cell-based, set 3 (AID 2801); type: functional
Chain of Tumor necrosis factor (P01375 whole entry): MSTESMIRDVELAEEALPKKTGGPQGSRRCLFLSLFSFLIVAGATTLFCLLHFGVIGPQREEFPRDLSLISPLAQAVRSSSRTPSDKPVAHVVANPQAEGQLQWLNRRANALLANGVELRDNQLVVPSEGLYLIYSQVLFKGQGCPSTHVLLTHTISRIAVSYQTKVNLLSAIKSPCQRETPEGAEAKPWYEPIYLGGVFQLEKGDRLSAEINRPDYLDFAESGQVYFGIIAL

[7] = molecular target: T1, Interleukin-8; assay: SAR analysis of Tumor necrosis factor alpha (TNF-alpha) induced IL-8 secretion in MCF-7/NOD1 cells - Set 2. [Related pubchem assays (depositor defined):AID1575, AID2250, AID2260]; type: functional, cell-based
[8] = molecular target: T3, Nucleotide-binding oligomerization domain-containing protein 1 (Homo sapiens, UniProt Q9Y239); assay: SAR analysis of compounds that inhibit NOD1 - Set 3. [Related pubchem assays (depositor defined):AID1566, AID1575, AID1578, AID1849, AID1852, AID2333, AID2335, AID2466]; type: functional
T3 sequence (Q9Y239 whole entry): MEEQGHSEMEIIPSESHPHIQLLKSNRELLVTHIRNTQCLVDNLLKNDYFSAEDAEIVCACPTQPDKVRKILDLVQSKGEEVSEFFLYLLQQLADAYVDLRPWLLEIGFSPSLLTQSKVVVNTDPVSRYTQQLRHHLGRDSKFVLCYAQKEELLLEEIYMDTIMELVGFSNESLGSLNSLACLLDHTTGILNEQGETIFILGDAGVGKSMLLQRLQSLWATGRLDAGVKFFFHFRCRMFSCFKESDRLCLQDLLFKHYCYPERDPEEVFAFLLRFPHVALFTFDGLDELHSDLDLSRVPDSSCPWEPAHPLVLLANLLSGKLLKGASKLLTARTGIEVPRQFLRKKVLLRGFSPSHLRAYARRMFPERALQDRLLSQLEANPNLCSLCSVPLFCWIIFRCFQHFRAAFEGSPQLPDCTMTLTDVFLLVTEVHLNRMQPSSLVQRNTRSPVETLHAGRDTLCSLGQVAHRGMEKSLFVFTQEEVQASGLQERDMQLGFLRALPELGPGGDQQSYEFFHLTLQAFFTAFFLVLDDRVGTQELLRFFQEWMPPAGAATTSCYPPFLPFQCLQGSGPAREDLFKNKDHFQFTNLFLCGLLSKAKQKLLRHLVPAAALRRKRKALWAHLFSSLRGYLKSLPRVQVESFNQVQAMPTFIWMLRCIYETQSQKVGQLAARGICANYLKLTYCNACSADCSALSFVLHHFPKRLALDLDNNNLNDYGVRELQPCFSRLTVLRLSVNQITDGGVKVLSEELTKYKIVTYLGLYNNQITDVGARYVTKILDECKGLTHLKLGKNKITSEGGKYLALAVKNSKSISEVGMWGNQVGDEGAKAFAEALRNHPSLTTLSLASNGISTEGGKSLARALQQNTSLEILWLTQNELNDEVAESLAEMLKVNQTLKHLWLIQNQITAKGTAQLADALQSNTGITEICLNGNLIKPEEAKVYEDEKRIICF

[9] = molecular target: T3, Nucleotide-binding oligomerization domain-containing protein 1; assay: SAR analysis of NF-kappaB dependent luciferase using DAP as an inducer - Set 2. [Related pubchem assays (depositor defined):AID1566, AID1575, AID1578, AID1579, AID1849, AID1852, AID2264]; type: functional
[10] = molecular target: T4, E3 ubiquitin-protein ligase XIAP (Homo sapiens, UniProt P98170); assay: SAR analysis of Antagonists of XIAP-Bir3 domain of IAP-family anti-apoptotic proteins. [Related pubchem assays (depositor defined):AID1018, AID1449, AID1513, AID1514, AID1638]
T4 sequence (P98170 whole entry, the tested form may be a part): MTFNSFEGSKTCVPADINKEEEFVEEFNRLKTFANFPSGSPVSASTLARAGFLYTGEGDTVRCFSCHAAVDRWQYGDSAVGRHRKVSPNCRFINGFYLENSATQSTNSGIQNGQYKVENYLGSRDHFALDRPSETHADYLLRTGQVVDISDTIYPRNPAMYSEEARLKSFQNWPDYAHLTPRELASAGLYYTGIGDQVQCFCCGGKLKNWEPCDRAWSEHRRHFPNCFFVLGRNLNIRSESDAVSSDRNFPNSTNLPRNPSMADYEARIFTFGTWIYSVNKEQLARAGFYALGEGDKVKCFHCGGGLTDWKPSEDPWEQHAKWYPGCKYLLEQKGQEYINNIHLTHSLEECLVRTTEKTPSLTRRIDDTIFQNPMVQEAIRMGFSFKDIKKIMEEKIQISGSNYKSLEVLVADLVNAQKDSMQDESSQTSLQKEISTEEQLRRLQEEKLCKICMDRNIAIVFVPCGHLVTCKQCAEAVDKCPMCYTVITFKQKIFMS

[11] = molecular target: T4, E3 ubiquitin-protein ligase XIAP; assay: SAR analysis of Antagonists of IAP-family anti-apoptotic proteins. [Related pubchem assays (depositor defined):AID1018, AID1449, AID1513, AID1514, AID1638]
[12] = molecular target: T5, Kappa-type opioid receptor (Homo sapiens, UniProt P41145); assay: SAR analysis of small molecule antagonists of the kappa opioid receptor via a luminescent beta-arrestin assay - Set 4. [Related pubchem assays (depositor defined):AID1777, AID1778, AID1785, AID1786, AID1966, AID2133, AID2136, AID2285]; type: functional
T5 sequence (P41145 whole entry): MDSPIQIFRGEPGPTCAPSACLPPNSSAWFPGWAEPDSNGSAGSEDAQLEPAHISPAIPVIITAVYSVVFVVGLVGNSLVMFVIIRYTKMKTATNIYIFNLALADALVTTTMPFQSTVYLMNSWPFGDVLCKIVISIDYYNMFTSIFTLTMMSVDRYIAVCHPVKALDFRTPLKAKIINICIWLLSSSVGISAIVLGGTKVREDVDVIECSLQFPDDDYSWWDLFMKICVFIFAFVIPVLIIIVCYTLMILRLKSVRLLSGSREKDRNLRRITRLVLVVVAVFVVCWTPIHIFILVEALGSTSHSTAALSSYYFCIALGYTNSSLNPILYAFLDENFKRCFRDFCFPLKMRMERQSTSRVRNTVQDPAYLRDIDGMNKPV

[13] = molecular target: T5, Kappa-type opioid receptor; assay: SAR analysis of small molecule antagonists of the kappa opioid receptor via a luminescent beta-arrestin assay - Set 5. [Related pubchem assays (depositor defined):AID1778, AID1785]; type: functional
[14] = decrease of PhoP-driven GFP reporter signal, S. Typhimurium, dose response, PhoP regulon inhibitor project, purified and synthesized compounds, set 2 (AID 2831); type: functional

Compound: CCCCCn1c(SCCc2ccccc2)nc2c1c(=O)[nH]c(=O)n2C
- IC50 [1]: 4.1 µM (active)
- IC50 [2]: > 20 µM (inactive)
- IC50 [3]: > 20 µM (inactive)
- IC50 [4]: > 20 µM (inactive)
- IC50 [5]: > 20 µM (inactive)
- IC50 [6]: > 20 µM (inactive)
- IC50 [7]: > 25 µM (inactive)
- IC50 [8]: 1.74 µM (active)
- IC50 [9]: > 25 µM (inactive)

- IC50 [10]: 132 µM (active)
- IC50 [11]: 4.7 µM (active)
Compound: CN[C@@H](C)C(=O)N[C@H](C(=O)N[C@@H](C)C(=O)NNc1ccccc1)C(C)C

- IC50 [12]: > 20 µM (inactive)
- IC50 [13]: > 20 µM (inactive)
Compound: Cc1ccc(S(=O)(=O)NCc2ccc(C(=O)NCCN(Cc3ccc([N+](=O)[O-])cc3)C(C)C)cc2)cc1

- IC50 [14]: > 125 µM (active)
Compound: OC1=C2C(=Nc3ccccc3SC2c2ccco2)c2ccccc21 (centres undefined)

From ChEMBL document CHEMBL1201862, “PubChem BioAssay data set” (2004)
